Measurements published in US11078216B2, “Bisaryl amides as NRF2 activators” (GLAXOSMITHKLINE INTELLECTUAL PROPERTY DEVELOPMENT LIMITED, priority 2016, dated 2021).

These compounds were tested on NRF2 (NQO1 activity as marker for NRF2 activation), BEAS-2B cells (assay: BEAS-2B NQO1 MTT Assay). Conditions: Homo sapiens, EC50 of NQO1 specific activity induction, 48 hours incubation, read-out: EC50.
Assay type: cell-based
Excerpt: NAD(P)H:quinone oxidoreductase 1 (NQO1), also called DT diaphorase, is a homodimeric FAD-containing enzyme that catalyzes obligatory NAD(P)H-dependent two-electron reductions of quinones and protects cells against the toxic and neoplastic effects of free radicals and reactive oxygen species arising from one-electron reductions. The transcription of NQO1 is finely regulated by NRF2, and thus NQO1 activity is a good marker for NRF2 activation. On day one, frozen BEAS-2B cells (ATCC) are thawed in a water bath, counted, and re-suspended at a concentration of 250,000 cells/mL. Fifty microliters of cells are plated in 384 well black clear-bottomed plates. Plates are incubated at 37° C., 5% CO2 overnight. On day two, plates are centrifuged and 50 nL of compound or controls are added to the cells. Plates are then incubated at 37° C., 5% CO2 for 48 hours. On day four, medium is aspirated from the plate and crude cell lysates are made by adding 13 uL of 1× Cell Signaling Technologies lysis buffer with 1 Complete, Mini, EDTA-free Protease Inhibitor Tablet (Roche) for each 10 mL of lysis buffer. After lysis plates are incubated for 20 minutes at room temperature. Two microliters of lysate are removed for use in Cell Titer Glo assay (Promega) and MTT cocktail is prepared (Prochaska et. al. 1998) for measurement of NQO1 activity. Fifty microliters of MTT cocktail is added to each well, plate is centrifuged, and analyzed on an Envision plate reader (Perkin Elmer) using Absorbance 570 nm label for 30 minutes. Product formation is measured kinetically and the EC50 of NQO1 specific activity induction is calculated by plotting the change in absorbance (Delta OD/min) versus the log of compound concentration followed by 3-parameter fitting.
EC50s<1 nM (+++++), EC50s 1 nM-10 nM (++++), EC50s 10 nM-100 nM (+++), EC50s 100 nM-1 uM (++), EC50s 1-10 uM (+), EC50s>10 uM (−), or were not determined (ND).

| Structure (SMILES) | EC50 |
| --- | --- |
| CC[C@@H]1CN(Cc2cc([C@H](CC(=O)Nc3ccncc3)c3ccc4c(nnn4CC)c3C)ccc2C)S(=O)(=O)c2cccnc2O1 [Example 19, (S)-3-(3-(((R)-4-Ethyl-1,1-dioxido-3,4-dihydro-2H-pyrido[2,3-b][1,4,5]oxathiazepin-2-yl)methyl)-4-methylphenyl)-3-(1-ethyl-4-methyl-1H-benzo[d][1,2,3]triazol-5-yl)-N-(pyridin-4-yl)propanamide] | 100 to 1000 nM |
| CC[C@@H]1CN(Cc2cc([C@@H](c3ccc4c(nnn4CC)c3C)[C@@H](C)C(=O)N3C(=O)OC[C@H]3Cc3ccccc3)ccc2C)S(=O)(=O)c2cccnc2O1 [Example 20, (R)-4-Benzyl-3-((2R,3S)-3-(3-(((R)-4-ethyl-1,1-dioxido-3,4-dihydro-2H-pyrido[2,3-b][1,4,5]oxathiazepin-2-yl)methyl)-4-methylphenyl)-3-(1-ethyl-4-methyl-1H-benzo[d][1,2,3]triazol-5-yl)-2-methylpropanoyl)oxazolidin-2-one] | 100 to 1000 nM |
| CC[C@@H]1CN(Cc2cc([C@H](CC(=O)NCCC(=O)N(C)C)c3ccc4c(nnn4CC)c3C)ccc2C)S(=O)(=O)c2cccnc2O1 [Example 21, (S)—N-(3-(Dimethylamino)-3-oxopropyl)-3-(3-(((R)-4-ethyl-1,1-dioxido-3,4-dihydro-2H-pyrido[2,3-b][1,4,5]oxathiazepin-2-yl)methyl)-4-methylphenyl)-3-(1-ethyl-4-methyl-1H-benzo[d][1,2,3]triazol-5-yl)propanamide] | 1000 to 10000 nM |
| CC[C@@H]1CN(Cc2cc([C@H](CC(=O)NC3CCOC3)c3ccc4c(nnn4CC)c3C)ccc2C)S(=O)(=O)c2cccnc2O1 (stereo partly drawn) [Example 22, (3S)-3-(3-(((R)-4-Ethyl-1,1-dioxido-3,4-dihydro-2H-pyrido[2,3-b][1,4,5]oxathiazepin-2-yl)methyl)-4-methylphenyl)-3-(1-ethyl-4-methyl-1H-benzo[d][1,2,3]triazol-5-yl)-N-(tetrahydrofuran-3-yl)propanamide] | 100 to 1000 nM |
| CC[C@@H]1CN(Cc2cc([C@H](CC(=O)NC(C)(C)C(N)=O)c3ccc4c(nnn4CC)c3C)ccc2C)S(=O)(=O)c2cccnc2O1 [Example 23, (S)-N-(1-Amino-2-methyl-1-oxopropan-2-yl)-3-(3-(((R)-4-ethyl-1,1-dioxido-3,4-dihydro-2H-pyrido[2,3-b][1,4,5]oxathiazepin-2-yl)methyl)-4-methylphenyl)-3-(1-ethyl-4-methyl-1H-benzo[d][1,2,3]triazol-5-yl)propanamide] | 1000 to 10000 nM |
| CC[C@@H]1CN(Cc2cc([C@H](CC(=O)NC3CN(C)C3)c3ccc4c(nnn4CC)c3C)ccc2C)S(=O)(=O)c2cccnc2O1 [Example 24, (S)-3-(3-(((R)-4-Ethyl-1,1-dioxido-3,4-dihydro-2H-pyrido[2,3-b][1,4,5]oxathiazepin-2-yl)methyl)-4-methylphenyl)-3-(1-ethyl-4-methyl-1H-benzo[d][1,2,3]triazol-5-yl)-N-(1-methylazetidin-3-yl)propanamide] | 1000 to 10000 nM |
| CC[C@@H]1CN(Cc2cc([C@H](CC(=O)NC3CCCOC3)c3ccc4c(nnn4CC)c3C)ccc2C)S(=O)(=O)c2cccnc2O1 (stereo partly drawn) [Example 25, (3S)-3-(3-(((R)-4-Ethyl-1,1-dioxido-3,4-dihydro-2H-pyrido[2,3-b][1,4,5]oxathiazepin-2-yl)methyl)-4-methylphenyl)-3-(1-ethyl-4-methyl-1H-benzo[d][1,2,3]triazol-5-yl)-N-(tetrahydro-2H-pyran-3-yl)propanamide] | 100 to 1000 nM |
| CC[C@@H]1CN(Cc2cc([C@H](CC(=O)NCC3CCOC3)c3ccc4c(nnn4CC)c3C)ccc2C)S(=O)(=O)c2cccnc2O1 (stereo partly drawn) [Example 26, (3S)-3-(3-(((R)-4-Ethyl-1,1-dioxido-3,4-dihydro-2H-pyrido[2,3-b][1,4,5]oxathiazepin-2-yl)methyl)-4-methylphenyl)-3-(1-ethyl-4-methyl-1H-benzo[d][1,2,3]triazol-5-yl)-N-((tetrahydrofuran-3-yl)methyl)propanamide] | 100 to 1000 nM |
| CC[C@@H]1CN(Cc2cc([C@H](CC(=O)NCC(C)(C)O)c3ccc4c(nnn4CC)c3C)ccc2C)S(=O)(=O)c2cccnc2O1 [Example 27, (S)-3-(3-(((R)-4-Ethyl-1,1-dioxido-3,4-dihydro-2H-pyrido[2,3-b][1,4,5]oxathiazepin-2-yl)methyl)-4-methylphenyl)-3-(1-ethyl-4-methyl-1H-benzo[d][1,2,3]triazol-5-yl)-N-(2-hydroxy-2-methylpropyl)propanamide] | 1000 to 10000 nM |
| CC[C@@H]1CN(Cc2cc([C@H](CC(=O)NC(C)C(=O)NC)c3ccc4c(nnn4CC)c3C)ccc2C)S(=O)(=O)c2cccnc2O1 (stereo partly drawn) [Example 28, (3S)-3-(3-(((R)-4-Ethyl-1,1-dioxido-3,4-dihydro-2H-pyrido[2,3-b][1,4,5]oxathiazepin-2-yl)methyl)-4-methylphenyl)-3-(1-ethyl-4-methyl-1H-benzo[d][1,2,3]triazol-5-yl)-N-(1-(methylamino)-1-oxopropan-2-yl)propanamide] | 1000 to 10000 nM |
| CC[C@@H]1CN(Cc2cc([C@H](CC(=O)NC3CCCNC3=O)c3ccc4c(nnn4CC)c3C)ccc2C)S(=O)(=O)c2cccnc2O1 (stereo partly drawn) [Example 29, (3S)-3-(3-(((R)-4-Ethyl-1,1-dioxido-3,4-dihydro-2H-pyrido[2,3-b][1,4,5]oxathiazepin-2-yl)methyl)-4-methylphenyl)-3-(1-ethyl-4-methyl-1H-benzo[d][1,2,3]triazol-5-yl)-N-(2-oxopiperidin-3-yl)propanamide] | 1000 to 10000 nM |
| CC[C@@H]1CN(Cc2cc([C@H](CC(=O)NCCS(N)(=O)=O)c3ccc4c(nnn4CC)c3C)ccc2C)S(=O)(=O)c2cccnc2O1 [Example 30, (S)-3-(3-(((R)-4-Ethyl-1,1-dioxido-3,4-dihydro-2H-pyrido[2,3-b][1,4,5]oxathiazepin-2-yl)methyl)-4-methylphenyl)-3-(1-ethyl-4-methyl-1H-benzo[d][1,2,3]triazol-5-yl)-N-(2-sulfamoylethyl)propanamide] | 100 to 1000 nM |
| CC[C@@H]1CN(Cc2cc([C@H](CC(=O)NC3CC3)c3ccc4c(nnn4CC)c3C)ccc2C)S(=O)(=O)c2cccnc2O1 [Example 31, (S)—N-Cyclopropyl-3-(3-(((R)-4-ethyl-1,1-dioxido-3,4-dihydro-2H-pyrido[2,3-b][1,4,5]oxathiazepin-2-yl)methyl)-4-methylphenyl)-3-(1-ethyl-4-methyl-1H-benzo[d][1,2,3]triazol-5-yl)propanamide] | 100 to 1000 nM |
| CC[C@@H]1CN(Cc2cc([C@H](CC(=O)NCCO)c3ccc4c(nnn4CC)c3C)ccc2C)S(=O)(=O)c2cccnc2O1 [Example 32, (S)-3-(3-(((R)-4-Ethyl-1,1-dioxido-3,4-dihydro-2H-pyrido[2,3-b][1,4,5]oxathiazepin-2-yl)methyl)-4-methylphenyl)-3-(1-ethyl-4-methyl-1H-benzo[d][1,2,3]triazol-5-yl)-N-(2-hydroxyethyl)propanamide] | 1000 to 10000 nM |
| CC[C@@H]1CN(Cc2cc([C@H](CC(=O)NCCCO)c3ccc4c(nnn4CC)c3C)ccc2C)S(=O)(=O)c2cccnc2O1 [Example 33, (S)-3-(3-(((R)-4-Ethyl-1,1-dioxido-3,4-dihydro-2H-pyrido[2,3-b][1,4,5]oxathiazepin-2-yl)methyl)-4-methylphenyl)-3-(1-ethyl-4-methyl-1H-benzo[d][1,2,3]triazol-5-yl)-N-(3-hydroxypropyl)-propanamide] | 1000 to 10000 nM |
| CC[C@@H]1CN(Cc2cc([C@H](CC(=O)NCCCOC)c3ccc4c(nnn4CC)c3C)ccc2C)S(=O)(=O)c2cccnc2O1 [Example 34, (S)-3-(3-(((R)-4-Ethyl-1,1-dioxido-3,4-dihydro-2H-pyrido[2,3-b][1,4,5]oxathiazepin-2-yl)methyl)-4-methylphenyl)-3-(1-ethyl-4-methyl-1H-benzo[d][1,2,3]triazol-5-yl)-N-(3-methoxypropyl)-propanamide] | 1000 to 10000 nM |
| CC[C@@H]1CN(Cc2cc([C@H](CC(=O)NCC(N)=O)c3ccc4c(nnn4CC)c3C)ccc2C)S(=O)(=O)c2cccnc2O1 [Example 35, (S)—N-(2-Amino-2-oxoethyl)-3-(3-(((R)-4-ethyl-1,1-dioxido-3,4-dihydro-2H-pyrido[2,3-b][1,4,5]oxathiazepin-2-yl)methyl)-4-methylphenyl)-3-(1-ethyl-4-methyl-1H-benzo[d][1,2,3]triazol-5-yl)propanamide] | 1000 to 10000 nM |
| CC[C@@H]1CN(Cc2cc([C@H](CC(=O)NCCNC)c3ccc4c(nnn4CC)c3C)ccc2C)S(=O)(=O)c2cccnc2O1 [Example 36, (S)-3-(3-(((R)-4-Ethyl-1,1-dioxido-3,4-dihydro-2H-pyrido[2,3-b][1,4,5]oxathiazepin-2-yl)methyl)-4-methylphenyl)-3-(1-ethyl-4-methyl-1H-benzo[d]-[1,2,3]triazol-5-yl)-N-(2-(methylamino)ethyl)propanamide] | 100 to 1000 nM |
